For assay [1], the system named is cisplatin induced vestibulotoxicity. Nature of the assay: Induced deficits of vestibular behavior after transtympanic cisplatin (vestibular deficit score). In kind it is in vivo, rat. The conditions noted are these: for time after the lesion at which protective effects are first observed: effects persist over the following days. As for the experimental part:
Vestibular deficit associated behaviors were scored on a scale from 0 to 4, respectively ranging from normal behavior (rating 0) to maximal identified vestibular impairment (rating 4). […] Rats were scored for vestibular deficits after transtympanic injection of cisplatin (50 μl, 2 mg/ml) and, evaluated from 4 to 336 hrs after the injection (FIG. 4). Scores were expressed as mean (±sem). For preventive treatment, injection of cimetidine (i.p., 12 mg/kg) was injected 4 hours before the transtympanic injection of cisplatin. Sham animals received saline (i.p) 4 hours before the lesion. To focus on the preventive action of transtympanic injection of the compounds of the invention in the first 72 hours, ototoxicity is induced by a transtympanic injection (50 μl) of cisplatin (2 mg/ml in saline; 6.7 mM) and a determined ratio of corresponding molar dose of compounds are premixed and injected transtympanically with cisplatin. For example, for the dose ratio 1/2 of compound/cisplatin, a solution of 3.5 mM of compound of interest in addition to the 6.7 mM of cisplatin in saline is prepared and, 50 μl of this mixed saline solution is injected transtympanically at TO. Different control animals are run in parallel: saline only, cisplatin (6.7 mM) only to control the initial lesion, and the compounds of interest alone at different doses in saline to control potential ototoxicity of the compound independently of cisplatin, are with cisplatin. […] For transtympanic experiments, rats were scored for vestibular deficits just before the transtympanic injection, TO and, evaluated at 24, 48 & 72 hours after the injection (FIGS. 5 to 11). Scores were expressed as mean (±sem).

The next assay relates to vestibular hair cells. The assay is classed as cell-based, rat. To be noted: co-treatment with cimetidine (1000 μM) and cisplatin for 48 hrs, FIG. 3. The method, then: Vestibular end organs were aseptically removed from animals. Explants composed of sensory and nonsensory epithelia were placed on 5 μl of growth factor-reduced Matrigel on laminin (10 μg/ml)-coated glass coverslips. These preparations were incubated for 30 min at 37° C. in a 95%/5% O2/CO2 atmosphere at saturating moisture. Explants were then cultured in DMEM and F12 (50%/50% v/v) media supplemented with N2 mixture (2%). The medium was renewed every 4 d. […] Treated cultures were then fixed with PAF 4% for 1 hr. Labeling of hair bundles was processed using Alex488-conjugated phalloidin (1:700) overnight. After rinsing with PBS, cultures were mounted in Moviol (Calbiochem). Labelling was observed and image digitalized using an apotome microscope (Zeiss). Hair bundles per utricle were quantified using ImageJ software. Statistical analysis was processed with SigmaPlot software (Systat Software). Final image processing was performed with Adobe Photoshop software.

The mark [2] stands for this setting: transtympanic injection, FIGS. 5 to 11.
Where [3] appears, read: transtympanic injection premixed with cisplatin, rats, FIGS. 5 to 11.

Seven molecules from US20150087677A1, “METHODS FOR TREATING VESTIBULOTOXICTY” (priority 2012, published 2015) can be followed below.

Consider `COc1ccnc(C[S+]([O-])c2nc3ccc(OC(F)F)cc3[nH]2)c1OC` (stereo not shown) [pantoprazole], for which the “time after the lesion at which protective effects are first observed” value (shortened to “time after the lesion”) in assay [1] (setting [2]) came out at 24 h.
As for `COc1ccc2[nH]c([S+]([O-])Cc3ncc(C)c(OC)c3C)nc2c1` (stereo not shown) [omeprazole], in assay [1] (setting [2]), the “time after the lesion” value was found to be 24 h.
As to `CN/C(=N/CCSCc1nc[nH]c1C)NC#N` [cimetidine], the “effect on vestibular toxicity and behavioral deficits induced by cisplatin” value (“effect … by cisplatin” for short) was “reduces the vestibular toxicity and behavioral deficits” in assay [1] (adult rats, systemic (i.p., 12 mg/kg) pretreatment 4 hrs before transtympanic cisplatin, FIG. 4); “reduces the vestibular toxicity and behavioral deficits” in assay [1] (setting [3]). For the same molecule, the “time after the lesion” value in assay [1] (systemic (i.p.) pretreatment t-4 hrs, FIG. 4) was found to be 48 h; in assay [1] (setting [2]), 24 h. Further, in the assay with vestibular hair cells, the “effect on cisplatin-induced vestibular hair cell loss in vitro” value was “reduces vestibular hair cell loss”.
In the case of `Cc1c(OCC(F)(F)F)ccnc1C[S+]([O-])c1nc2ccccc2[nH]1` (stereo not shown) [lansoprazole], the “effect … by cisplatin” value in assay [1] (setting [3]) was “reduces the vestibular toxicity and behavioral deficits”. In addition, the “time after the lesion” value in assay [1] (setting [2]) stood at 24 h.
On to `CNC(=C[N+](=O)[O-])NCCSCc1ccc(CN(C)C)o1` [ranitidine], for which the “time after the lesion” value in assay [1] (setting [2]) amounted to 24 h.
For the molecule `CNC(=C[N+](=O)[O-])NCCSCc1csc(CN(C)C)n1` [nizatidine], in assay [1] (setting [3]), the “effect … by cisplatin” value was “reduces the vestibular toxicity and behavioral deficits”. In addition, the “time after the lesion” value in assay [1] (setting [2]) stood at 24 h.
For `COCCCOc1ccnc(C[S+]([O-])c2nc3ccccc3[nH]2)c1C` (stereo not shown) [rabeprazole], the “time after the lesion” value in assay [1] (setting [2]) came out at 24 h.
